Four compounds from ChEMBL document CHEMBL5380816, “Inclusion of Nitrofurantoin into the Realm of Cancer Chemotherapy via Biology-Oriented Synthesis and Drug Repurposing” (J Med Chem, 2023) can be followed below.

SMILES strings stand for the structures. Activity calls are given as the source filed them. The rule behind the calls is not given here.

For test [1], the system named is Caco-2. Briefly: Induction of apoptosis in human Caco-2 cells assessed as early apoptotic cells by measuring bright green patch incubated at 0.098 uM for 72 hrs by acridine orange-ethidium bromide dual staining based fluorescence microscopic analysis. It is filed as functional, cell-based.
Test [2] deals with HeLa. Kind of test: Induction of apoptosis in human HeLa cells assessed as viable cells incubated at 0.098 uM for 72 hrs by annexin V-FITC based propidium iodide dual staining assay (reference value: 97.23%). It is filed as functional. Conditions: read-out: Activity.
For test [3], the system named is HepG2. Briefly: Anticancer activity against human HepG2 cells assessed as cell shrinkage incubated at 0.098uM for 72 hrs by phase contrast inverted microscopic analysis. Type of test: functional, cell-based.
The test system of test [4] is Caco-2. Kind of test: Induction of apoptosis in human Caco-2 cells assessed as late apoptotic cells incubated at 0.098 uM for 72 hrs by annexin V-FITC based propidium iodide dual staining assay (reference value: 0.02%). Type of test: functional.
In test [5] the test system is HeLa. Briefly: Anticancer activity against human HeLa cells assessed as losing contact with neighbouring cells incubated at 0.098uM for 72 hrs by phase contrast inverted microscopic analysis. It is filed as functional, cell-based.
Test [6] concerns HeLa. Kind of test: Anticancer activity against human HeLa cells assessed as absence of normal spindle shape incubated at 0.098uM for 72 hrs by phase contrast inverted microscopic analysis. Type of test: functional, cell-based.
In test [7] the test system is HeLa. Briefly: Induction of apoptosis in human HeLa cells assessed as late apoptotic cells by measuring orange to red patch incubated at 0.098 uM for 72 hrs by acridine orange-ethidium bromide dual staining based fluorescence microscopic analysis. Type of test: functional, cell-based.
For test [8], the system named is Caco-2. Briefly: Anticancer activity against human Caco-2 cells assessed as smaller cells incubated at 0.098uM for 72 hrs by phase contrast inverted microscopic analysis. It is filed as functional, cell-based.
Test [9] relates to MCF7. Briefly: Induction of apoptosis in human MCF7 cells assessed as late apoptotic cells incubated at 0.098 uM for 72 hrs by annexin V-FITC based propidium iodide dual staining assay (reference value: 0.01%). It is filed as functional.
Test [10] has as its system HepG2. Briefly: Induction of apoptosis in human HepG2 cells assessed as early apoptotic cells by measuring bright green patch incubated at 0.098 uM for 72 hrs by acridine orange-ethidium bromide dual staining based fluorescence microscopic analysis. Type of test: functional, cell-based.
The subject of test [11] is HepG2. Briefly: Anticancer activity against human HepG2 cells assessed as losing contact with neighbouring cells incubated at 0.098uM for 72 hrs by phase contrast inverted microscopic analysis. It is filed as functional, cell-based.
Test [12] relates to HeLa. Briefly: Induction of apoptosis in human HeLa cells assessed as late apoptotic cells incubated at 0.017 uM for 72 hrs by annexin V-FITC based propidium iodide dual staining assay (reference value: 0%). It is filed as functional.
Test [13] deals with Caco-2. Briefly: Induction of oxidative stress in human Caco-2 cells assessed as cell death by measuring redox alteration fluorescence incubated at 0.097 uM for 72 hrs in presence of dihydro dichlorofluorescein diacetate by DCFH-DA based flow cytometric analysis relative to control. It is filed as functional. In general terms: In flow cytometry, cells or beads pass a laser one at a time.

In test [14] the test system is Calf thymus DNA. Kind of test: Induction of calf thymus DNA damage assessed as disrupted by DNA by measuring decrease in fluorescence intensity at 200 uM by EvaGreen based fluorescence plate reader analysis. Type of test: nucleic-acid assay. Conditions: Bos taurus.
For test [15], the system named is HeLa. Briefly: Induction of apoptosis in human HeLa cells assessed as late apoptotic cells incubated at 0.11 uM for 72 hrs by annexin V-FITC based propidium iodide dual staining assay (reference value: 0%). Type of test: functional.
Test [16] has as its system HepG2. Kind of test: Induction of apoptosis in human HepG2 cells assessed as early apoptotic cells incubated at 0.11 uM for 72 hrs by annexin V-FITC based propidium iodide dual staining assay (reference value: 1.74%). It is filed as functional.
Test [17] concerns Calf thymus DNA. Kind of test: Induction of calf thymus DNA damage assessed as disrupted by DNA by measuring decrease in fluorescence intensity by EvaGreen based fluorescence plate reader analysis. Type of test: nucleic-acid assay. Conditions: Bos taurus; dose <= 500.0 µM.
The subject of test [18] is Caco-2. Briefly: Anticancer activity against human Caco-2 cells assessed as cell shrinkage incubated at 0.11 uM for 72 hrs by phase contrast inverted microscopic analysis. Type of test: functional, cell-based.
In test [19] the test system is HepG2. Kind of test: Anticancer activity against human HepG2 cells assessed as cell shrinkage incubated at 0.11 uM for 72 hrs by phase contrast inverted microscopic analysis. Type of test: functional, cell-based.
The test system of test [20] is dsDNA. Briefly: Induction of damage in dsDNA (unknown origin) assessed as DNA disruption by measuring damage constant at 100 uM incubated for 2.5 hrs by EvaGreen based fluorescence plate reader analysis. It is filed as nucleic-acid assay.
Test [21] has as its system MCF7. Briefly: Induction of DNA damage in human MCF7 cells assessed as reduction of p53 ubiquitination at 5 uM incubated for 24 hrs by Western blot analysis. Type of test: functional, cell-based.
Test [22] concerns Caco-2. Kind of test: Induction of apoptosis in human Caco-2 cells assessed as total apoptotic cells incubated at 0.11 uM for 72 hrs by annexin V-FITC based propidium iodide dual staining assay (reference value: 0.04 +/- 0.005%). It is filed as functional.
Test [23] deals with MCF7. Kind of test: Induction of apoptosis in human MCF7 cells assessed as early apoptotic cells by measuring bright green patch incubated at 0.11 uM for 72 hrs by acridine orange-ethidium bromide dual staining based fluorescence microscopic analysis. It is filed as functional, cell-based.
Test [24] relates to HepG2. Briefly: Induction of oxidative stress in human HepG2 cells assessed as cell death by measuring redox alteration fluorescence incubated at 0.027 uM for 72 hrs in presence of dihydro dichlorofluorescein diacetate by DCFH-DA based flow cytometric analysis relative to control. It is filed as functional.
In test [25] the test system is dsDNA. Briefly: Induction of damage in dsDNA (unknown origin) assessed as DNA disruption by measuring fluorescence intensity at 100 uM incubated for 2.5 hrs by EvaGreen based fluorescence plate reader analysis. Type of test: nucleic-acid assay.
Test [26] relates to Caco-2. Kind of test: Induction of apoptosis in human Caco-2 cells assessed as late apoptotic cells by measuring orange to red patch incubated at 0.11 uM for 72 hrs by acridine orange-ethidium bromide dual staining based fluorescence microscopic analysis. Type of test: functional, cell-based.
The subject of test [27] is MCF7. Kind of test: Anticancer activity against human MCF7 cells assessed as losing contact with neighbouring cells incubated at 0.11 uM for 72 hrs by phase contrast inverted microscopic analysis. It is filed as functional, cell-based.
Test [28] has as its system HepG2. Briefly: Induction of apoptosis in human HepG2 cells assessed as late apoptotic cells by measuring orange to red patch incubated at 0.097 uM for 72 hrs by acridine orange-ethidium bromide dual staining based fluorescence microscopic analysis. Type of test: functional, cell-based.
The subject of test [29] is HeLa. Kind of test: Anticancer activity against human HeLa cells assessed as cell shrinkage incubated at 0.097uM for 72 hrs by phase contrast inverted microscopic analysis. It is filed as functional, cell-based.
For test [30], the system named is MCF7. Briefly: Induction of apoptosis in human MCF7 cells assessed as increase in Bax expression level relative to control. It is filed as functional.
In test [31] the test system is HeLa. Briefly: Induction of apoptosis in human HeLa cells assessed as early apoptotic cells by measuring bright green patch incubated at 0.097 uM for 72 hrs by acridine orange-ethidium bromide dual staining based fluorescence microscopic analysis. It is filed as functional, cell-based.
The subject of test [32] is HepG2. Kind of test: Induction of oxidative stress in human HepG2 cells assessed as cell death by measuring redox alteration fluorescence incubated at 0.098 uM for 72 hrs in presence of dihydro dichlorofluorescein diacetate by DCFH-DA based flow cytometric analysis relative to control. It is filed as functional.
In test [33] the test system is Caco-2. Kind of test: Anticancer activity against human Caco-2 cells assessed as smaller cells incubated at 0.097uM for 72 hrs by phase contrast inverted microscopic analysis. It is filed as functional, cell-based.
For test [34], the system named is MCF7. Briefly: Induction of apoptosis in human MCF7 cells assessed as late apoptotic cells by measuring orange to red patch incubated at 0.097 uM for 72 hrs by acridine orange-ethidium bromide dual staining based fluorescence microscopic analysis. It is filed as functional, cell-based.
Test [35] concerns MCF7. Kind of test: Anticancer activity against human MCF7 cells assessed as round cells incubated at 0.097uM for 72 hrs by phase contrast inverted microscopic analysis. Type of test: functional, cell-based.
In test [36] the test system is Caco-2. Briefly: Induction of apoptosis in human Caco-2 cells assessed as increase in Bax expression level relative to control. Type of test: functional.

Consider `O=C(CN1C(=O)CN(/N=C/c2ccc([N+](=O)[O-])o2)C1=O)c1ccc(Cl)cc1`, for which the outcome in the test with Caco-2 [1], with HepG2 [3], with HeLa [5], with HeLa [6], with HeLa [7] and in the test on Caco-2 [8] was Active. The result with HepG2 [10] and in the test on HepG2 [11] was Active. In the test with HeLa [2], the viability at 0.098 µM is 29.8%. For the same compound, the figures for the Activity in the test on Caco-2 [4] and in the test on MCF7 [9] were 27.58% and 38.55%, respectively.

With `O=c1[nH]cc(F)c(=O)[nH]1` [FLUOROURACIL], the Activity in the test on HeLa [12] was found to be 3.4%; with Caco-2 [13], 4.78%.

For `C#CCN1C(=O)CN(/N=C/c2ccc([N+](=O)[O-])o2)C1=O`, the outcome with Calf thymus DNA [14], in the test with Caco-2 [18], in the test with HepG2 [19], in the test with MCF7 [21], in the test on MCF7 [23] and with Caco-2 [26] was Active. Besides, the result with MCF7 [27] was Active. For the same compound, the Activity was 22.69% in the test with HeLa [15]; 4.8% in the test with HepG2 [16]; “Dose-Dependent Effect” in the test with Calf thymus DNA [17]; 8.41 with dsDNA [20]; 45.81% in the test with Caco-2 [22]; 54.19% in the test with HepG2 [24]. In the test with dsDNA [25], the Activity is 27.2.

As for `NS(=O)(=O)c1ccc(-n2cc(CN3C(=O)CN(/N=C/c4ccc([N+](=O)[O-])o4)C3=O)nn2)cc1`, the outcome in the test with HepG2 [28], in the test on HeLa [29], in the test with HeLa [31], in the test on Caco-2 [33], in the test on MCF7 [34] and with MCF7 [35] was Active. For the same compound, the Activity with MCF7 [30] was found to be 300%; in the test with HepG2 [32], 48.51%; in the test with Caco-2 [36] it was 300%.
